Results from paper PMC10620772, “Design, synthesis, and biological evaluation of new pyrimidine-5-carbonitrile derivatives as novel anti-cancer, dual EGFR^WT/COX-2 inhibitors with docking studies” (RSC Advances, 2023).
Several values for one entry are separate records, joined by “and”; a condition that tells them apart may be missing. Identical values can stand only once.

Columns and labels:
colon cancer subpanel = experiment: NCI60 five-dose, subpanel III; type: cell-based, human; conditions: for GI50: Homo sapiens, read-out: MG-MID (GI50); for GI50 / MG-MID (TGI): subpanel III; for Selectivity index (GI50) / Selectivity index (TGI): full panel MG-MID / subpanel III
Text: (2) The molar concentration of the compound responsible for total growth inhibition, also known as total growth inhibition (TGI).
Regarding subpanel selectivity toward certain cancer type, the method of determining a compound's selectivity index is to divide the full panel MG-MID (μM) value by each single subpanel. Values above six indicate high selectivity against the subpanel; moderate selectivity is denoted by values between three and six. Conversely, compounds are termed nonselective if their selectivity is less than three.[30,37]

EGFR^WT = target: T1, EGFR^WT (Homo sapiens, UniProt P00533); experiment: In vitro EGFR^WT inhibitory assay (BPS Bioscience kinase kit); type: biochemical; conditions: means ± SD of three experiments
T1 construct: purchased BPS Bioscience 40 321
T1 sequence (P00533 25-1210): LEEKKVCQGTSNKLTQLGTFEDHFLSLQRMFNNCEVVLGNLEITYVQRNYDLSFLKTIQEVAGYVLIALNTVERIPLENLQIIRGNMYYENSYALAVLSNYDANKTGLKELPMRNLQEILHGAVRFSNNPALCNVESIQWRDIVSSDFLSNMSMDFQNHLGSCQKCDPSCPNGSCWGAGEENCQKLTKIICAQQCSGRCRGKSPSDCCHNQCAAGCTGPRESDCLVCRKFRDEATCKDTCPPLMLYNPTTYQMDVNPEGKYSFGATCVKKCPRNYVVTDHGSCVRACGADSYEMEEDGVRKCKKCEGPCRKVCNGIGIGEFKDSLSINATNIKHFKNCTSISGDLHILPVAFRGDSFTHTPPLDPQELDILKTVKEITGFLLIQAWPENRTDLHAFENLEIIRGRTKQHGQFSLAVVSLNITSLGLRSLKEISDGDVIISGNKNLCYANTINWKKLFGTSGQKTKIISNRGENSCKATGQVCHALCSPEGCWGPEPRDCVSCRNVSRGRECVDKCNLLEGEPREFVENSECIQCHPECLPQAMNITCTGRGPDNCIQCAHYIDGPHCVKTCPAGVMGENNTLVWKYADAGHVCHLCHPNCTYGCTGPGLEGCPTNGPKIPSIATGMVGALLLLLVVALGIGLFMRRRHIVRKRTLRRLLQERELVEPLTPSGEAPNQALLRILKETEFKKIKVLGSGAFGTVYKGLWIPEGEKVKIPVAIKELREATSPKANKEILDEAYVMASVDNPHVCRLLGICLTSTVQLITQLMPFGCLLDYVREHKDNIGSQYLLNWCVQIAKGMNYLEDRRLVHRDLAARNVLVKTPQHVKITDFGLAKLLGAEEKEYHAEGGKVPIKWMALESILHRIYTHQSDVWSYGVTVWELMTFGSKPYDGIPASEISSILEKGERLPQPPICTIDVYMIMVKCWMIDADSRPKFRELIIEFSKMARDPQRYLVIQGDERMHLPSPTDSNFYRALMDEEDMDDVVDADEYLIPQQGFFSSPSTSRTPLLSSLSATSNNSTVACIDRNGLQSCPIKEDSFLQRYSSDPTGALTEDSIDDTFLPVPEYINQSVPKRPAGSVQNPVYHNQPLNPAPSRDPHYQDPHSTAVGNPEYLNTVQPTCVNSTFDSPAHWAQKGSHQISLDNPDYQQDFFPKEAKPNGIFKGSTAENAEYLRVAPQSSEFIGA
Method: (1) Prepare the mixture of N wells × (kinase assay buffer 6 μl, ATP1 μl, PTK substrate 1 μl and water 17 μl). to every well pipette the 25 μl. […] On the contrary, add 5 μl of inhibitor buffer to control and plank wells. (3) Pipette 20 μl of EGFR^WT to test and control wells, on the blank wells pipette 20 μl kinase assay buffer. Then incubate at R.T for 40 min. (4) end the incubation after 40 min by adding to every well 50 μl of Kinase-Glo Max reagent, and incubate 15 min. By measuring the ATP quantity after kinase reaction, the activity of kinase could be detected. (5) use microplate reader to measure the luminescence.[51]

[1] = test system: active caspase-3 in Colo 205 cells; experiment: Caspase-3 ELISA; type: cell-based, human; conditions: for Caspase 3: Colo_205, treated at IC50
Text: Among the death proteases, the caspases family of cysteine-dependent aspartate-directed proteases is significant. There are multiple levels where caspase activation and activity are regulated.[43] Caspases are activated during apoptosis, which eventually results in cell death by deactivating a number of signals.[44] One of the crucial survival signals, EGFR, may be the target of caspase activation to ensure the completion of apoptosis.[45] Additionally, it has been reported that activating caspase-3 through COX-2 inhibition enhances apoptosis.[40] Therefore, the impact of the novel compounds on the level of caspase 3 was examined.
(1) Into the antibody coated wells add 100 μl of standard diluent buffer excepts wells wich detected to be the chromogen blank, then add 100 μl. […] (10) Decant liquid from wells then wash, (11) pipette 100 μl of chromogen substrate to all wells, The well fluid will start to become blue. (12) 30 minutes should be spent incubating at room temperature in the dark. (13) To each well, add 100 μl of stop solution. To mix, lightly tap the plate's edge. The well solution should transform from blue to yellow. (14) Read the absorbance of each well using a microtiter plate reader at 450 nm. (15) Draw the standard curve using a curve fitting program. (16) The standard curve can be used to determine the concentrations for unknown samples and controls.[55]

SMILES	GI50 (colon cancer subpanel) [nM]	Selectivity index (GI50) (colon cancer subpanel)	Selectivity index (TGI) (colon cancer subpanel)	MG-MID (TGI) (colon cancer subpanel) [nM]	IC50 (EGFR^WT)	Caspase 3 [1] [pg·mL]	Caspase 3 fold vs control ([1]; Colo 205, treated at IC50)
N#Cc1c(-c2ccc(F)cc2)nc(SCc2ccccc2)nc1N1CCNCC1 [4e, 2-(Benzylthio)-4-(4-fluorophenyl)-6-(piperazin-1-yl) pyrimidine-5-carbonitrile]	5100	2.09	1.79	13120	96 ± 4 nM	808.9 ± 11.9	
N#Cc1c(-c2ccc(F)cc2)nc(SCc2ccc(F)cc2)nc1N1CCNCC1 [4f, 2-((4-Fluorobenzyl)thio)-4-(4-fluorophenyl)-6-(piperazin-1-yl) pyrimidine-5-carbonitrile]	7000	1.92	1.54	17150	230 nM and 235 nM	656.4 ± 13.1	8 fold and 7.88 fold
